Experimental data from publication PMC12810351, “Structure-effect relationship of phenolic compounds on α-amylase inhibition studied by isothermal titration calorimetry” (Current Research in Food Science, 2025).
Read-outs that look alike come from different tables or passages of the source.

Assays:
α-amylase [1] = molecular target: α-amylase; set-up: method as in Nyambe-Silavwe et al. (2015); details: substrate amylose, amylopectin, DNS UV/Vis; ref Nyambe-Silavwe et al. (2015); cited from earlier work
[2] = molecular target: T1, porcine pancreatic α-amylase (Sus scrofa, UniProt P00690); test: starch hydrolysis by α-amylase monitored by isothermal titration calorimetry (ITC); type: biochemical; details: for remaining activity at 25 µM: 25 μM EGCG, relative to control
T1 sequence (P00690 16-511): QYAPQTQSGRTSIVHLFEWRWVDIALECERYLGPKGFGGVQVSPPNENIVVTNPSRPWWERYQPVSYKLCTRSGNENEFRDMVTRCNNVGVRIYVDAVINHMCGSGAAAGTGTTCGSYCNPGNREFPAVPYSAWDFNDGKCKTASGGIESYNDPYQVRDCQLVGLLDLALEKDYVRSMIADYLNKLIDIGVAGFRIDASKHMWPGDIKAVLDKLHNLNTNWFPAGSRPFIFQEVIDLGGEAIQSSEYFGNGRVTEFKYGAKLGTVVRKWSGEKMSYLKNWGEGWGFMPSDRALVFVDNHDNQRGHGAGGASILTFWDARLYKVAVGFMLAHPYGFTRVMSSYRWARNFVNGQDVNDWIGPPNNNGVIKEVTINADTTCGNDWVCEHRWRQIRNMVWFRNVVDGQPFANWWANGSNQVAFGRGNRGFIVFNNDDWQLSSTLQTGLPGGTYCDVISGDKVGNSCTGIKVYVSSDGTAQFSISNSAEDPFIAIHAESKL
Description: The amylase stock solution was diluted each day and stored during the day at 4 °C.
The experiments were conducted using an Affinity ITC LV instrument with a cell volume of 182 μL (TA Instruments, Eschborn, Germany). […] These controls were conducted to determine the optimal injection volume to achieve maximal velocity (vmax) (S11). […] Enzyme kinetic constants were determined at 310 K.
The heat released during starch conversion was continuously monitored, with calculations performed using Microsoft Excel® software. The enzymatic rate (v) is directly proportional to the measured thermal power (eq (1)).(1) v=dP/dt=1/Vcell·ΔRHapp·dQ/dt
The reaction enthalpy ( ΔRHapp ) is determined by integrating the heat peak over its entire duration, divided by the number of substrate molecules converted:(2) ΔRHapp=∫t=0∞dQ/dtdt/nS
(dQ/dt)max [%], ΔRHapp [%] und vmax [%] are calculated in relation to daily control.
The substrate concentration at time t ([S]t) is calculated according to eq (3).(3) [S]t=∫t∞dQ/dtdt/∫0∞dQ/dtdt·[S]t=0
Therefore, the thermogram contains all the required data for calculating inhibition constants. The maximal conversion rate vmax and the Michaelis-Menten constant Km are determined from control experiments conducted in the absence of an inhibitor. In the presence of an inhibitor [I] the apparent values of vmaxapp and Kmapp are obtained. Competitive inhibition (Kic, eq (5)) is due to the formation of an enzyme-inhibitor complex (EI), whereas uncompetitive inhibition (Kiu, eq (5)) occurs when an inhibitor binds to a […]:(5) Kic=vmaxapp/Kmapp·[I]/(vmax/Km)−(vmaxapp/Kmapp)Kiu=vmaxapp·[I]/vmax−vmaxapp
The IC50 value, a key pharmacological metric, is used to compare the potency of inhibitors. […] The conversion rate (v0) was calculated from the thermogram according to eq (1), and subsequently plotted against the […]

α-amylase [3] = molecular target: α-amylase; set-up: method as in Kaeswurm et al. (2019); details: substrate GalG2CNP, CNP UV/Vis, ref Kaeswurm et al. (2019), cited from earlier work

O=C(O[C@@H]1Cc2c(O)cc(O)cc2O[C@@H]1c1cc(O)c(O)c(O)c1)c1cc(O)c(O)c(O)c1 [EGCG, epigallocatechin gallate]
IC50 (α-amylase [1]): 5.3 to 60 µM
remaining activity at 25 µM ([2]; read-out: (dQ/dt)max [%]): 38 ± 4%
remaining activity at 25 µM ([2]; read-out: vmax [%]): 49 ± 2%
reversibility of inhibition (from ΔRHapp) ([2]; 100 μM polyphenol (EGCG 25 μM)): irreversible aggregation
α (Kic/Kiu) ([2]; calculated based on the mass concentration): 0.73 ± 0.01
Ki ([2]; calculated based on the mass concentration, read-out: Kic [g/L] (converted)): 21.8 µM
Ki ([2]; calculated based on the mass concentration, read-out: Kiu [g/L] (converted)): 21.8 µM
Ki ([2]; competitive inhibition constant, substrate starch, ITC, 100 μM polyphenol (EGCG 25 μM), read-out: Kic): 19 ± 2 µM
inhibition mechanism suggested by Kic/Kiu ratios ([2]; polyphenol standards): preferentially bind to the enzyme
inhibition type ([2]; substrate starch, ITC): mixed
IC50 ([2]; substrate starch, ITC, calculated by eq (6), substrate concentration of 1 M (IC50 equivalent to Kiu), read-out: IC50*): 25 ± 2 µM
Ki ([2]; uncompetitive inhibition constant, substrate starch, ITC, 100 μM polyphenol (EGCG 25 μM), read-out: Kiu): 26 ± 2 µM
IC50 (α-amylase [3]): 58 µM
Ki (α-amylase [3]; read-out: Kic): 124 µM
Ki (α-amylase [3]; read-out: Kiu): 58 µM
